# PMC6028563, “Probing Substituents in the 1- and 3-Position: Tetrahydropyrazino-Annelated Water-Soluble Xanthine Derivatives as Multi-Target Drugs With Potent Adenosine Receptor Antagonistic Activity” (Frontiers in Chemistry, 2018)
# Assays:
# [1] = target: T1, human A1 AR (Homo sapiens, UniProt P30542); test: Radioligand binding assay at human A1 AR vs. [^3H]CCPA; details: human (h); CHO cell membranes; n = 3
# T1 construct: expressed in transfected cells; host or cells: CHO cells
# T1 sequence (P30542 1-326): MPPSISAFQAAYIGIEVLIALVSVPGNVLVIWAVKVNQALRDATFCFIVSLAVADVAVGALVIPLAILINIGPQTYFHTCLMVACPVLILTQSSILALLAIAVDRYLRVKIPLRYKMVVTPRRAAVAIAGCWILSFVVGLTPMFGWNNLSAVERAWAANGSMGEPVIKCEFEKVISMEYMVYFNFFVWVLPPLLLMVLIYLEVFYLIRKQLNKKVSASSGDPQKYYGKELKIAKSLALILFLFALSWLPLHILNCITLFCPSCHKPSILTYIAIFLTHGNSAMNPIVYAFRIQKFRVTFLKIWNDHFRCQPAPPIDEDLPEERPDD
# Experimental: (§1) Membrane preparations and radioligand binding assays at rat A1 (rat brain cortex) and rat A2A ARs (rat brain striatum) were performed as previously described (Ozola et al., [2003]; Alnouri et al., [2015]). For assays at human A1, A2A, A2B, and A3 ARs, CHO cell membranes expressing one of the human AR subtypes were used as previously reported (Klotz et al., [1998]; Alnouri et al., [2015]; De Filippo et al., [2016]).
# (§2) The synthesized tetrahydropyrazino[2,1-f ]purinediones 13–20 were evaluated in radioligand binding assays for their affinity to A1 ARs of rat brain cortical membrane and to A2A ARs of rat brain striatal membrane preparations. Selected compounds were further investigated for their affinity to human A1 and A2A ARs recombinantly expressed in Chinese hamster ovary (CHO) cells. All compounds were additionally investigated for their affinity to human A2B and A3 ARs recombinantly expressed in CHO cells to determine their AR subtype selectivity. […] It is well known that all xanthine derivatives lacking a ribose moiety, including tricyclic compounds, can only block ARs, but never act as AR agonists; therefore, additional functional studies were not required. […] Potent MAO-B inhibitors were additionally investigated for inhibition of human MAO-A to assess their selectivity. Results are presented in Tables 1–6, and data of standard ligands are included for comparison.
# [2] = target: T2, rat A1 AR (Rattus norvegicus, UniProt P25099); test: Radioligand binding assay at rat A1 AR (rat brain cortex) vs. [^3H]CCPA; details: rat (r); rat brain cortex; n = 3
# T2 construct: A1 ARs of rat brain cortical membrane; from tissue; host or cells: rat brain cortex membranes
# T2 sequence (P25099 1-326): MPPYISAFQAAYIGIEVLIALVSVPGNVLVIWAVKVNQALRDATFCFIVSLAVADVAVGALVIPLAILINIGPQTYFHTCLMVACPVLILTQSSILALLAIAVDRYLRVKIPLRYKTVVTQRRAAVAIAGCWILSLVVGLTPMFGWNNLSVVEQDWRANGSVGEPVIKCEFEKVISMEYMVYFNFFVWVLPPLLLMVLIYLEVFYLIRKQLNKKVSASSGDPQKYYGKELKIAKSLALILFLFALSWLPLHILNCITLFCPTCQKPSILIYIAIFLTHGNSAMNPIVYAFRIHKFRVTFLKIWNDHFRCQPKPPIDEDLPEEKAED
# Experimental: as §1, §2
# [3] = target: T3, human A2A AR (Homo sapiens, UniProt P29274); test: Radioligand binding assay at human A2A AR vs. [^3H]MSX-2; details: CHO cell membranes, n = 3, read-out: Ki ± SEM, A2A vs. [^3H]MSX-2
# T3 construct: expressed in transfected cells; host or cells: CHO cells
# T3 sequence (P29274 whole entry): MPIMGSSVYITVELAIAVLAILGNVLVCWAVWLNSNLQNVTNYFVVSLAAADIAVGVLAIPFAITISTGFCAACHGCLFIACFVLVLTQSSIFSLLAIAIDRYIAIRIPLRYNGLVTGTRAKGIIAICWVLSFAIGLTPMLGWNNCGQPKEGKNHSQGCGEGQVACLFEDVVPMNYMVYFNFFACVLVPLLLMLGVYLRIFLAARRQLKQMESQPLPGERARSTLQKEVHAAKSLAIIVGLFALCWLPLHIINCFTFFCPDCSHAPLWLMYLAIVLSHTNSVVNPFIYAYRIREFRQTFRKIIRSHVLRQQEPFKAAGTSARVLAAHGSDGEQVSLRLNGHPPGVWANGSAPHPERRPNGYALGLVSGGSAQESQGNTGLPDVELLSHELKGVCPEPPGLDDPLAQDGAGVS
# Experimental: as §1, §2
# [4] = target: T4, rat A2A AR (Rattus norvegicus, UniProt P30543); test: Radioligand binding assay at rat A2A AR (rat brain striatum) vs. [^3H]MSX-2; details: rat (r); for Ki: rat brain striatum, n = 3, read-out: Ki ± SEM, A2A vs. [^3H]MSX-2
# T4 construct: A2A ARs of rat brain striatal membrane preparations; from tissue; host or cells: rat brain striatum membranes
# T4 sequence (P30543 whole entry): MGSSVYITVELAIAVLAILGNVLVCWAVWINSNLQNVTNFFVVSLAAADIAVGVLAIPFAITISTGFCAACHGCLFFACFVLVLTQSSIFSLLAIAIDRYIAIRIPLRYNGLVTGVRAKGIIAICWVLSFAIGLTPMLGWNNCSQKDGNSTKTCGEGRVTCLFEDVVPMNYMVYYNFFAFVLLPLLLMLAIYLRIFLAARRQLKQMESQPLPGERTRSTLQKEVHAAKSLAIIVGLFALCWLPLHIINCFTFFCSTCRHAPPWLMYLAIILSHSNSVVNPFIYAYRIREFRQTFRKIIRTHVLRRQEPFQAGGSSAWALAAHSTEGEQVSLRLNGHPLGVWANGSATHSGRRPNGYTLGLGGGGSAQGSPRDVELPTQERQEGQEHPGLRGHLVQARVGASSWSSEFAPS
# Experimental: as §1, §2
# [5] = target: T5, human A2B AR (Homo sapiens, UniProt P29275); test: Radioligand binding assay at human A2B AR vs. [^3H]PSB-603; details: for Ki: CHO cell membranes, n = 2 (n = 3 where marked a), read-out: Ki ± SEM, A2B vs. [^3H]PSB-603; for inhibition at 1 µM: at 1,000 nM, read-out: % inhibition of radioligand binding at indicated concentration, A2B vs. [^3H]PSB-603
# T5 construct: expressed in transfected cells; host or cells: CHO cells
# T5 sequence (P29275 1-332): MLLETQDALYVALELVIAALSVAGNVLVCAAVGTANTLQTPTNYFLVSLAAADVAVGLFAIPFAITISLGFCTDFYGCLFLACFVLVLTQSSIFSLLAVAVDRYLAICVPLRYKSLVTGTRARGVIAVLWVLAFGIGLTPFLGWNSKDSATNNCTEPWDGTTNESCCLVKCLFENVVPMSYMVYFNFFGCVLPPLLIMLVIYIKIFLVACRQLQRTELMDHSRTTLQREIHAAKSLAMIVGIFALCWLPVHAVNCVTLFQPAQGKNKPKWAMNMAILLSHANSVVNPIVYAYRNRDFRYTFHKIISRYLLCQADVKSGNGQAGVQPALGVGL
# Experimental: as §1, §2
# [6] = target: T6, human A3 AR (Homo sapiens, UniProt P0DMS8); test: Radioligand binding assay at human A3 AR vs. [^3H]PSB-11; details: for Ki: CHO cell membranes, n = 2 (n = 3 where marked a), read-out: Ki ± SEM, A3 vs. [^3H]PSB-11
# T6 construct: expressed in transfected cells; host or cells: CHO cells
# T6 sequence (P0DMS8 1-318): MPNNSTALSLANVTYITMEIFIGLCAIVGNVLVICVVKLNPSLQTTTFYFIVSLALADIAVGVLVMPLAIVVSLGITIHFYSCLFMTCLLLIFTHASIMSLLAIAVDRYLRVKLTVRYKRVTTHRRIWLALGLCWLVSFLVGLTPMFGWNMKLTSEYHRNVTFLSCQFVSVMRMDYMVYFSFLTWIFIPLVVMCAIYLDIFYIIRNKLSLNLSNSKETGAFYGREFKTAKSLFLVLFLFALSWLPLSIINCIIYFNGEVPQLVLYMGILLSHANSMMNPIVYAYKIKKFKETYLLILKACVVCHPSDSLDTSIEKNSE
# Experimental: as §1, §2
# [7] = target: T7, recombinant human MAO-B (Homo sapiens, UniProt P27338); test: Monoamine oxidase assay (Amplex Red), MAO-B; format: biochemical; details: for inhibition at 10 µM: at 10,000 nM (10 μM), read-out: % inhibition at indicated concentration, Human MAO-B; for IC50: n = 3, read-out: IC50 ± SEM, Human MAO-B
# T7 construct: purchased Sigma-Aldrich M7441; host or cells: baculovirus-infected insect cells
# T7 sequence (P27338 1-520): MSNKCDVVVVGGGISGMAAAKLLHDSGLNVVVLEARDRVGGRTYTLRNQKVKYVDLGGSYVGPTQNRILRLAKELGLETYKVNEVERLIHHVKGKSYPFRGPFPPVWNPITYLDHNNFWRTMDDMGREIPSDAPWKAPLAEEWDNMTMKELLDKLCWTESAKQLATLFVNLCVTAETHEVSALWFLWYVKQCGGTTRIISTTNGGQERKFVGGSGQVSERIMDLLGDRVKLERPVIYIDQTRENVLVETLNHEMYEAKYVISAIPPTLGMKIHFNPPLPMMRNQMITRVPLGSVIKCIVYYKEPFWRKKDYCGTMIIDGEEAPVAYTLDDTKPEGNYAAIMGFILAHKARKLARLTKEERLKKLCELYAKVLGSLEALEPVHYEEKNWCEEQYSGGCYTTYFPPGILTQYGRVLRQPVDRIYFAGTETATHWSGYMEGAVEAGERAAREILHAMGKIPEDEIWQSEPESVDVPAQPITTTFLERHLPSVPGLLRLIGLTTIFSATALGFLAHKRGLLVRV
# Experimental: The determination of MAO-A and MAO-B inhibition was performed using commercially available recombinant human MAO-A and MAO-B enzymes expressed in baculovirus-infected insects sells (Sigma-Aldrich, M7316 and M7441) applying the commercially available Amplex® Red monoamine oxidase assay kit (Invitrogen A12214). The assays were performed as previously described. The determination of rat MAO-B inhibition was performed using mitochondrial-enriched fractions from male Sprague Dawley rat livers. […]
Ki [1] [nM],Ki [2] [nM],Ki [3] [nM],Ki [4] [nM],Ki [5] [nM],Ki [6] [nM],inhibition at 10 µM [7] [%],IC50 [7] [nM],"% inhibition of radioligand binding at indicated concentration, A2A vs. [^3H]MSX-2 ([4]; at 1,000 nM) [%]",inhibition at 1 µM [5] [%],"inhibition at 10 µM ([6]; at 10,000 nM, read-out: % inhibition of radioligand binding at indicated concentration, A3 vs. [^3H]PSB-11) [%]",SMILES
13.6 ± 2.1,21.5 ± 8.3,1050,1040,496 ± 135,7220,49,≥ 10000,,,,"CCn1c(=O)c2c(nc3n2CCN(Cc2cccc(Br)c2)C3)n(CC)c1=O [Compound 15d, 8-(3-bromobenzyl)-1,3-diethyl-6,7,8,9-tetrahydropyrazino[2,1-f]purine-2,4(1H,3H)-dione]"
128 ± 17,85.9 ± 28.6,2380,> 1000,> 1000,5410,47,≥ 10000,22,12,,"CCn1c(=O)c2c(nc3n2CCN(Cc2cccc(Cl)c2)C3)n(CC)c1=O [Compound 15c, 8-(3-chlorobenzyl)-1,3-diethyl-6,7,8,9-tetrahydropyrazino[2,1-f]purine-2,4(1H,3H)-dione]"
189 ± 29,172 ± 28,663 ± 54,895 ± 210,> 1000,> 10000,32,> 10000,,30,29,"CCn1c(=O)c2c(nc3n2CCN(Cc2cccc(C(F)(F)F)c2F)C3)n(CC)c1=O [Compound 15h, 1,3-diethyl-8-(2-fluoro-3-(trifluoromethyl)benzyl)-6,7,8,9-tetrahydropyrazino[2,1-f]purine-2,4(1H,3H)-dione]"
